The record followed here is ChEMBL document CHEMBL5727865, “4,6-substituted-pyrazolo[1,5-a]pyrazines as Janus kinase inhibitors” (2020).

Where only a bound is given, the exact number is not on record here.

For assay [1], the target named is Tyrosine-protein kinase JAK1 (Homo sapiens, UniProt P23458). Kind of assay: JAK1 Inhibition Assay: Compounds of Formula I were screened for their ability to inhibit JAK1 using the general enzyme inhibition assay method, in which the assay mixture contained 1 mM ATP, 8 μM Omnia Y12 peptide (Catalog # IVGN KPZ3121C; Invitrogen Corporation, Carlsbad, Calif.) and 12.5 nM JAK1 in a total volume of 25 μL. JAK1 was purchased from Invitrogen Corporation, Carlsbad, Calif. (catalog # IVGN PV4775).
Chain of Tyrosine-protein kinase JAK1 (P23458 whole entry): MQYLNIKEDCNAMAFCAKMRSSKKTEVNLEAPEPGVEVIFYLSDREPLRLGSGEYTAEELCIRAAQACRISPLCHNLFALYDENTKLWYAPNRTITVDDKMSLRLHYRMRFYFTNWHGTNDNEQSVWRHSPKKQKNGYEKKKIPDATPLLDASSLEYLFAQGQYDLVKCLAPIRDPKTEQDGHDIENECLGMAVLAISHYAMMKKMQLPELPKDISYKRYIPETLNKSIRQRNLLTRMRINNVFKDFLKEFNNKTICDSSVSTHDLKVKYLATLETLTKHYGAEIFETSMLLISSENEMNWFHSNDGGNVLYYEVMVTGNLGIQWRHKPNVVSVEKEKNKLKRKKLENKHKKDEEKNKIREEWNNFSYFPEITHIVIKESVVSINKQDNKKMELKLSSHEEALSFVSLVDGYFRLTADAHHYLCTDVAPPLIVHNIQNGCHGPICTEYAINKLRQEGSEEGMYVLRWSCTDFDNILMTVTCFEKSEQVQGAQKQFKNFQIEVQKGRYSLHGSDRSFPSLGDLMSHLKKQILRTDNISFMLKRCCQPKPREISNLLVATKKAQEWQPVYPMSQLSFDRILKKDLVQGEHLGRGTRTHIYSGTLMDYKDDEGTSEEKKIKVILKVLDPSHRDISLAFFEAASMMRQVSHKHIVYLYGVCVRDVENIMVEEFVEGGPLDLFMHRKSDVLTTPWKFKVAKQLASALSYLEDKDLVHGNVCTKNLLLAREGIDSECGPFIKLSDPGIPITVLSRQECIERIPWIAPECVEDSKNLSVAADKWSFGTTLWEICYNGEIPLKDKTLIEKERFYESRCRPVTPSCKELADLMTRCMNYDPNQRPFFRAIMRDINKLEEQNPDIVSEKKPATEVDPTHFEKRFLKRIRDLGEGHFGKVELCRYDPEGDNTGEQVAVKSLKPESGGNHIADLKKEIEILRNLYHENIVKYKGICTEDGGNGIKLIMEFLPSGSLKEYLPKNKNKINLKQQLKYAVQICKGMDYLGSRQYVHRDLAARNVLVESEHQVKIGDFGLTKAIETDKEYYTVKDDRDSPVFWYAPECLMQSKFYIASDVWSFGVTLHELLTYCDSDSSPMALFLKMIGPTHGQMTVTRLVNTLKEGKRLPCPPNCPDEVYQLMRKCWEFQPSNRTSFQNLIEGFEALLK

Assay [2] has as its target Tyrosine-protein kinase JAK2 (Homo sapiens, UniProt O60674). Kind of assay: JAK2 Inhibition Assay: Compounds of Formula I were screened for their ability to inhibit JAK2 using the general enzyme inhibition assay method, in which the assay mixture contained 1 mM ATP, 10 μM Omnia Y7 peptide (Catalog # IVGN KNZ3071C, Invitrogen Corporation, Carlsbad, Calif.) and 4 nM JAK2 in a total volume of 25 μL. JAK2 was purchased from Invitrogen Corporation, Carlsbad, Calif. (catalog # IVGN PV4288).

Chain of Tyrosine-protein kinase JAK2 (O60674 whole entry): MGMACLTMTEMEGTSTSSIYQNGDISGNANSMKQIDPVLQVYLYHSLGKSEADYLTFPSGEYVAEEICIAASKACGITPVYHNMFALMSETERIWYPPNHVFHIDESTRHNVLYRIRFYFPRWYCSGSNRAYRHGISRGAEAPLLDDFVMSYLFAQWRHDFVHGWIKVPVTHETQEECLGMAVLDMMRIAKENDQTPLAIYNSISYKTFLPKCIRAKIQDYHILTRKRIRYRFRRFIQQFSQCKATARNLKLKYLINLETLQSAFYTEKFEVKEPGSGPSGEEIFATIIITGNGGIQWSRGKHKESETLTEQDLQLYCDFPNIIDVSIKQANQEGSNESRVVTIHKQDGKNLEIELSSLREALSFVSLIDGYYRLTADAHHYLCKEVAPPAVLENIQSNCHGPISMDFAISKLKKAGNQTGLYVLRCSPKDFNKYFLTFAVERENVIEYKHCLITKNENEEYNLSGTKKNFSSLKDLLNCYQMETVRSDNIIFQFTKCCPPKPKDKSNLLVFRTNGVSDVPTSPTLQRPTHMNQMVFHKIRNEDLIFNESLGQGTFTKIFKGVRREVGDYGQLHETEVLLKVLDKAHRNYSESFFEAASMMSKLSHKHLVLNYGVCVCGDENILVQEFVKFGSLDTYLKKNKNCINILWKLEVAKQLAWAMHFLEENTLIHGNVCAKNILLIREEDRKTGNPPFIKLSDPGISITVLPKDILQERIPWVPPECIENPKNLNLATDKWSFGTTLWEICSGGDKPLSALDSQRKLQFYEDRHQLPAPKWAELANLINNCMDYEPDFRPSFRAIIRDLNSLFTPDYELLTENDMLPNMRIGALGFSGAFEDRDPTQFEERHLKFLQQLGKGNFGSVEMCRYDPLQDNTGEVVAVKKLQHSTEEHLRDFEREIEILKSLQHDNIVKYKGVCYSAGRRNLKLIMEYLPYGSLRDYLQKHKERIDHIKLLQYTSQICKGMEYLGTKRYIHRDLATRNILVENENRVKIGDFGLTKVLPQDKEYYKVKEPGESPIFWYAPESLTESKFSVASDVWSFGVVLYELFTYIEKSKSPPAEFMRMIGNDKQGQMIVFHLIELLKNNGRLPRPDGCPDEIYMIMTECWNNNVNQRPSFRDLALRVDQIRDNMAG

With `CCC(CC)n1cc(-c2nc(-c3cnn([C@H]4C[C@@](O)(CO)C4)c3)cn3nccc23)cn1`, in assay [1], the IC50 entry was “in the range around 5500 nM”.
In the case of `CCC(CC)n1cc(-c2nc(-c3cnn([C@H]4C[C@@H](O)[C@@H](O)C4)c3)cn3nccc23)cn1`, the IC50 in assay [2] is below 10 nM.

A word on the IC50: it is the point on the concentration scale where inhibition reaches its midpoint.
